US20040014217A1, “Methods of transfection” (priority 2000, published 2004)

Key:
[1] = test system: normal and CF epithelial cell lines; assay: Transfection of sub-confluent and confluent airway epithelial cell lines (summary of description); assay type: cell-based, human
Text: However, all the cell lines tested were transfected under conventional conditions for transfection, that is to say, the cells were sub-confluent. It has been reported that mitosis is required for efficient transformation using cationic liposomes and also when using peptide-based transformation systems (Wilke, 1996; Tseng 1999; Brunner 2000). Confluent cells and/or cells treated with inhibitors of DNA polymerase such as aphidicolin are non-mitotic and transfect with polycationic vectors with low efficiency. The major cell limiting step is considered to be delivery of the transfected nucleic acid into the nucleus. Transportation of the nucleic acid through the cytoplasm to the nucleus is slow and the pores in the nuclear envelope are too small to permit rapid entry of the transfected nucleic acid. It is generally accepted that sub-confluent cultures, in which the cells are dividing, should be used for transfection. We attempted transfection with the transfection complexes of WO98/54347 but using cell line cultures that were confluent i.e. effectively non-mitotic.
The present invention is based on the surprising observation that the use of EGTA with a transfection vector comprising DNA, an integrin-binding component, a polycationic nucleic acid-binding component, and a lipid component, enhances transfection efficiency of confluent cells, which are slowly dividing or non-dividing i.e. substantially non-mitotic cells, in vitro and in vivo.
In accordance with the present invention integrin-targeted transfection vector complexes comprising peptide 6 above, which is an α5β1-targeted peptide, linked to oligolysine comprising 16 lysines i.e. K16, (component I); lipofectin (component L); and a reporter gene (component D) were used with EGTA for transfection. Sub-confluent normal and CF epithelial cell lines were transfected with the green fluorescent report gene and transfection efficiencies of 40 to 50% were achieved. Cells were then cultured in confluent monolayers to model more closely airway structure. […]

1HAEo-cells = assay: Luminometric luciferase assay, EGTA effects, 1HAEo- cells; assay type: cell-based, human; conditions: 2 mM EGTA prior to transfection, 2 washes
Method: The confluent (A) and subconfluent (B) 1HAEo-cells were transfected with LID complexes after pre-treatment with EGTA (EGTA) or in the presence of EGTA (LID+EGTA).
To enhance the efficiency of transfection in confluent epithelial cells, several agents were tested including EGTA (Sigma, Poole, UK), trypsin/EDTA (Sigma, Poole, UK), water, and mouse anti human E-cadherin antibody (Serotec Ltd, Oxford, UK). It was carried out firstly by comparing the effects of pretreatment of the cells with EGTA, water and Trypsin/EDTA with EGTA formulated into LID vector without pretreatment. […]
Twenty-four hours after transfection with pCI-luciferase, is cells were washed with PBS, lysed by adding 100 μl of Reporter Lysis Buffer (Promega, Southampton, UK) and detached from the plate by manual scraping using micropipette tips. […] The activity of luciferase was assayed with a luciferase assay kit (Promega, Southampton, UK) on a Lucy-1 plate-reading luminometer (Anthos, Salzburg, Austria). The protein concentration of each sample was determined with Protein Assay Reagent (BioRad Laboratories, Hertfordshire, UK) by measuring absorbance at 595 nm and the specific activity of luciferase was expressed as relative light unit per milligram protein (RLU/mg protein).

[2] = test system: confluent epithelial cells; assay: Transepithelial resistance after EGTA exposure; conditions: 2 mM EGTA; data not shown
[3] = test system: Human airway epithelial (HAE) cells; assay: Luciferase (pCILuc) transfection of HAE cells, Example 13; assay type: cell-based
Method: Transfection vector complexes were prepared as described in the Material and Methods section, see also Example 15. The complexes were prepared using 4 μg of the peptide, 0.75 μg of lipofectin and 1 μg of the reporter gene. All components and the vector complex were made up in OptiMEM (Life Technologies, Inc.). EGTA (Sigma) at a concentration of 100 mM in water was added to the transfection vector complex preparation at one hundredth of the volume of the vector complex, giving a final EGTA concentration of 1 mM.
The EGTA/vector complex mixture was added to the cultures, which were then harvested two days later. As controls, cultures were treated with OptiMEM medium alone and with the transfection vector complex without EGTA.
We obtained essentially the same results using the luciferase reporter gene instead of GFP. Transfections ere carried out using the transfection vector prepared as described above with the construct pCILuc, with and without EGTA, as described above. Luciferase assays were performed on cell-free extracts of harvested cells using a kit obtained from Promega using an Anthos Lucy 1 Luminometer. As with the GFP experiments, luciferase levels were enhanced approximately four-fold in confluent cells treated with EGTA compared with transfections performed without EGTA. […]

O=C(O)CN(CCOCCOCCN(CC(=O)O)CC(=O)O)CC(=O)O [EGTA, ethylene glycol-bis(β-aminoethyl ether)-N,N,N′,N′-tetraacetic acid]
effect on transfection efficiency of sub-confluent cells [1]: no effect | increase of transfection efficiency of airway epithelial cells in vitro ([1]; green fluorescent protein and luciferase reporter genes): about four-fold | transfection efficiency, confluent cells co-treated with EGTA ([1]; green fluorescent reporter gene): 20 to 30% | enhancement of transfection, EGTA pre-treatment protocol, confluent cells (1HAEo-cells): no enhancement | recovery of transepithelial resistance after removal [2]: 16 to 18 h | time after exposure at which transepithelial resistance dropped [2]: about 10 minutes | enhancement of luciferase levels in confluent cells versus transfection without EGTA ([3]; pCILuc): approximately four-fold | transfection after pre-incubation of the cells with EGTA ([3]; pre-incubation before vector): no better than the results without EGTA
